Test results: patent US20240308987A1, “SMALL MOLECULE INHIBITOR AGAINST NASOPHARYNGEAL CARCINOMA, PREPARATION METHOD AND APPLICATION THEREOF” (SHENZHEN BAY LABORATORY, priority 2021, published 2024)

The molecules below were run on C666-1 cells (assay: C666-1 Cell Viability Assay (Resazurin cytotoxicity test)). Settings: Homo sapiens, C6661, EB virus-positive C666-1 cells, 72 hours treatment, 100-0.78 micromole/L, read-out: Inhibitory Rate.
Format: cell-based
Protocol: In order to evaluate the inhibitory effect of the small molecular compound of the present disclosure on EBNA1 at the cellular level, a cytotoxicity test was performed.
As mentioned in the Background of the present disclosure, nasopharyngeal carcinoma is a kind of disease highly associated with latent infection of EB virus. EB virus in latent state only expresses limited proteins to maintain its genome replication, among which EBNA1 protein is an essential functional protein. Studies have confirmed that inhibition of EBNA1 can reduce the proliferation of the corresponding nasopharyngeal carcinoma cells or kill them. Therefore, EB virus-positive nasopharyngeal carcinoma tumor cells (C666-1 cells) are selected for test to verify the effect of the small molecular compound of the present disclosure.
During testing, 100 microliters of different cell lines were inoculated onto a transparent 96-well plate, and 5×10^3 cells were inoculated in each well for C666-1 cells. After the cells were cultured in an incubator under […] at 37° C. for 24 hours, 10 microliters of compound with a concentration ranging from 1 mmol/L to 7.8 micromol/L were added to each well (8 points, double dilution, the final concentration was 100-0.78 micromole/L), and treated in the incubator under carbon dioxide at 37° C. for 72 hours. Cell viability was assessed using the redox indicator Resazurin. After addition of 10 microliters of 600 micromole/liter Resazurin to each well and incubation at 37° C. for 3 hours. Using a Tecan microplate reader, the fluorescence signals were detected at an […]. A software was used to fit the inhibition curve and calculate half-maximal effect concentration (EC50). The selectivity of compound activity was assessed by comparing the EC50 values of EB virus-positive and EB virus-negative cell lines.
Molecule `COC(=O)c1cccc(N2CC(Oc3ccc(/C=C/c4cccnc4)cc3)C2)c1-c1ccccc1` [Example 36, methyl (E)-6-(3-(4-(2-(pyridin-3-yl)vinyl)phenoxy)azetidin-1-yl)-[1,1′-biphenyl]-2-carboxylate] has an EC50 of 10 to 50 µM.
`COC(=O)c1cccc(N2CC(Oc3ccc(COc4cccnc4)c(C)c3)C2)c1-n1cccc1` [Example 15, methyl 3-(3-(3-methyl-4-((pyridin-3-yloxy)methyl)phenoxy)azetidin-1-yl)-2-(1H-pyrrol-1-yl) benzoate] showed an EC50 of 10 to 50 µM.
`O=C(NO)c1cccc(N2CC(Oc3ccc(COc4cccnc4)cc3)C2)c1-c1ccccc1` [Example 17b, N-hydroxy-6-(3-(4-((pyridin-3-yloxy)methyl)phenoxy)azetidin-1-yl)-[1,1′-biphenyl]-2-carboxamide] gave an EC50 of 1 to 10 µM.
In the case of `O=C(Cc1ccc(C#Cc2cccc(C(=O)NO)c2-c2ccccc2)cc1)Nc1cccnc1` [Example 60b, N-hydroxy-6-((4-(2-oxo-2-(pyridin-3-ylamino)ethyl)phenyl)ethynyl)-[1,1′-biphenyl]-2-carboxamide], the EC50 is reported as less than 1 µM.
`COC(=O)c1cccc(N2CC(Oc3ccc(NC(=O)Nc4cncc(F)c4)cc3)C2)c1-n1cccc1` [Example 46, methyl 3-(3-(4-(3-(5-fluoropyridin-3-yl)ureido)phenoxy)azetidin-1-yl)-2-(1H-pyrrol-1-yl) benzoate] was tested, and the EC50 was 1 to 10 µM.
`O=C(NO)c1cccc(N2CC(Oc3ccc(OCc4cccnc4)cc3)C2)c1-n1cccc1` [Example 24b, N-hydroxy-3-(3-(4-(pyridin-3-ylmethoxy)phenoxy)azetidin-1-yl)-2-(1H-pyrrol-1-yl) benzamide] gave an EC50 of less than 1 µM.
For `COC(=O)c1cccc(C#Cc2ccc(NC(=O)Nc3cccnc3)cc2)c1-c1cccc(O)c1` [Example 63, methyl 3′-hydroxyl-6-((4-(3-(pyridin-3-yl)ureido)phenyl)ethynyl)-[1,1′-biphenyl]-2-carboxylate], the EC50 was less than 1 µM.
In the case of `COC(=O)c1cccc(N2CC(Oc3ccc(CNc4cccnc4)cc3)C2)c1-c1cccc(Cl)c1` [Example 38, methyl 3′-chloro-6-(3-(4-((pyridin-3-ylamino)methyl)phenoxy)azetidin-1-yl)-[1,1′-biphenyl]-2-carboxylate], the EC50 is reported as 10 to 50 µM.
`CCOC(=O)c1cccc(N2CC(Oc3ccc(COc4cccnc4)cc3)C2)c1-n1cccc1` [Example 1b, ethyl 3-(3-(4-((pyridin-3-yloxy)methyl)phenoxy)azetidin-1-yl)-2-(1H-pyrrol-1-yl) benzoate] showed an EC50 of less than 1 µM.
`COc1cncc(OCc2ccc(OC3CN(c4cccc(C(=O)O)c4-n4cccc4)C3)cc2)c1` [Example 6a, 3-(3-(4-(((5-methoxypyridin-3-yl)oxy)methyl)phenoxy)azetidin-1-yl)-2-(1H-pyrrol-1-yl) benzoic acid] gave an EC50 greater than 50 µM.
`COC(=O)c1cccc(N2CC(Oc3ccc(COc4cccnc4)c(Cl)c3)C2)c1-n1cccc1` [Example 19, methyl 3-(3-(3-chloro-4-((pyridin-3-yloxy)methyl)phenoxy)azetidin-1-yl)-2-(1H-pyrrol-1-yl) benzoate] showed an EC50 of 10 to 50 µM.
Molecule `COC(=O)c1cccc(N2CC(Oc3ccc(COc4cccs4)cc3)C2)c1-n1cccc1` [Example 30, methyl 2-(1H-pyrrol-1-yl)-3-(3-(4-((thiophen-2-yloxy)methyl)phenoxy)azetidin-1-yl) benzoate] has an EC50 greater than 50 µM.
Work on `O=C(Cc1cccnc1)Nc1ccc(OC2CN(c3cccc(C(=O)O)c3-c3cccc(Cl)c3)C2)cc1` [Example 48a, 3′-chloro-6-(3-(4-(2-(pyridin-3-yl)acetamido)phenoxy)azetidin-1-yl)-[1,1′-biphenyl]-2-carboxylic acid] yielded an EC50 of 10 to 50 µM.
`COC(=O)c1cccc(N2CC(Oc3ccc(NC(=O)Cc4cccnc4)cc3)C2)c1-n1cccc1` [Example 51, methyl 3-(3-(4-(2-(pyridin-3-yl)acetamido)phenoxy)azetidin-1-yl)-2-(1H-pyrrol-1-yl) benzoate] was tested, and the EC50 was less than 1 µM.
Molecule `COC(=O)c1cccc(N2CC(Oc3ccc(NC(=O)Nc4cccnc4)cc3)C2)c1` [Example 50, methyl 3-(3-(4-(3-(pyridin-3-yl)ureido)phenoxy)azetidin-1-yl) benzoate] has an EC50 of 1 to 10 µM.
`O=C(NO)c1cccc(N2CC(Oc3ccc(/C=C/c4cccnc4)cc3)C2)c1-n1cccc1` [Example 28b, (E)-N-hydroxy-3-(3-(4-(2-(pyridin-3-yl)vinyl)phenoxy)azetidin-1-yl)-2-(1H-pyrrol-1-yl) benzamide] showed an EC50 of less than 1 µM.
Work on `COC(=O)c1cccc(N2CC(Oc3ccc(COc4cccnc4)c(F)c3)C2)c1-n1cccc1` [Example 20, methyl 3-(3-(3-fluoro-4-((pyridin-3-yloxy)methyl)phenoxy)azetidin-1-yl)-2-(1H-pyrrol-1-yl) benzoate] yielded an EC50 of 1 to 10 µM.
`COC(=O)c1cccc(N2CC(Oc3ccc(NC(=O)Cc4cccnc4)cc3)C2)c1C` [Example 53, methyl 2-methyl-3-(3-(4-(2-(pyridin-3-yl)acetamido)phenoxy)azetidin-1-yl) benzoate] was tested, and the EC50 was 10 to 50 µM.
`O=C(Cc1cccnc1)Nc1ccc(OC2CN(c3cccc(C(=O)O)c3-c3ccccc3)C2)cc1F` [Example 54a, 6-(3-(3-fluoro-4-(2-(pyridin-3-yl)acetamido)phenoxy)azetidin-1-yl)-[1,1′-biphenyl]-2-carboxylic acid] was tested, and the EC50 was 1 to 10 µM.
With `O=C(Nc1ccc(C#Cc2cccc(C(=O)O)c2-c2ccccc2)cc1)Nc1cccnc1` [Example 58a, 6-((4-(3-(pyridin-3-yl)ureido)phenyl)ethynyl)-[1,1′-biphenyl]-2-carboxylic acid] the EC50 was 1 to 10 µM.
In the case of `O=C(Nc1ccc(OC2CN(c3cccc(C(=O)NO)c3-n3cccc3)C2)cc1)Nc1cccnc1` [Example 34b, N-hydroxy-3-(3-(4-(3-(pyridin-3-yl)ureido)phenoxy)azetidin-1-yl)-2-(1H-pyrrol-1-yl) benzamide], the EC50 is reported as less than 1 µM.
`Cc1cc(COc2cccnc2)ccc1OC1CN(c2cccc(C(=O)O)c2-n2cccc2)C1` [Example 16a, 3-(3-(2-methyl-4-((pyridin-3-yloxy)methyl)phenoxy)azetidin-1-yl)-2-(1H-pyrrol-1-yl) benzoic acid] showed an EC50 greater than 50 µM.
Molecule `COC(=O)c1cccc(N2CC(Oc3ccc(COc4cnc5ccccc5c4)cc3)C2)c1-n1cccc1` [Example 9, methyl 2-(1H-pyrrol-1-yl)-3-(3-(4-((quinolin-3-yloxy)methyl)phenoxy)azetidin-1-yl) benzoate] has an EC50 greater than 50 µM.
In the case of `O=C(O)c1cccc(N2CC(Oc3ccc(Oc4cccnc4)cc3)C2)c1-n1cccc1` [Example 25a, 3-(3-(4-(pyridin-3-yloxy)phenoxy)azetidin-1-yl)-2-(1H-pyrrol-1-yl) benzoic acid], the EC50 is reported as greater than 50 µM.
In the case of `O=C(Nc1ccc(OC2CN(c3cccc(C(=O)O)c3-c3cccc(Cl)c3)C2)cc1)Nc1cccc(C(F)(F)F)c1` [Example 37a, 3′-chloro-6-(3-(4-(3-(3-(trifluoromethyl)phenyl)ureido)phenoxy)azetidin-1-yl)-[1,1′-biphenyl]-2-carboxylic acid], the EC50 is reported as greater than 50 µM.
`O=C(O)c1cccc(N2CC(Oc3ccc(COc4cnccn4)cc3)C2)c1-n1cccc1` [Example 13a, 3-(3-(4-((pyrazin-2-yloxy)methyl)phenoxy)azetidin-1-yl)-2-(1H-pyrrol-1-yl) benzoic acid] showed an EC50 greater than 50 µM.
With `O=C(O)c1cccc(N2CC(Oc3ccc(CCc4cccnc4)cc3)C2)c1-n1cccc1` [Example 29a, 3-(3-(4-(2-(pyridin-3-yl)ethyl)phenoxy)azetidin-1-yl)-2-(1H-pyrrol-1-yl) benzoic acid] the EC50 was greater than 50 µM.
`COC(=O)c1cccc(N2CC(Oc3ccc(OCc4cccnc4)cc3)C2)c1-n1cccc1` [Example 24, methyl 3-(3-(4-(pyridin-3-ylmethoxy)phenoxy)azetidin-1-yl)-2-(1H-pyrrol-1-yl) benzoate] showed an EC50 of 1 to 10 µM.
`O=C(Cc1ccc(OC2CN(c3cccc(C(=O)NO)c3)C2)cc1)Nc1cccnc1` [Example 43b, N-hydroxy-3-(3-(4-(2-oxo-2-(pyridin-3-ylamino)ethyl)phenoxy)azetidin-1-yl) benzamide] showed an EC50 of less than 1 µM.
`COC(=O)c1cccc(N2CC(Oc3ccc(Oc4ccncc4)cc3)C2)c1-n1cccc1` [Example 26, methyl 3-(3-(4-(pyridin-4-yloxy)phenoxy)azetidin-1-yl)-2-(1H-pyrrol-1 - yl) benzoate] showed an EC50 of 1 to 10 µM.
In the case of `COC(=O)c1cccc(N2CC(Oc3ccc(NC(=O)Nc4cncc(C)c4)cc3)C2)c1-n1cccc1` [Example 47, methyl 3-(3-(4-(3-(5-methylpyridin-3-yl)ureido)phenoxy)azetidin-1-yl)-2-(1H-pyrrol-1-yl) benzoate], the EC50 is reported as 10 to 50 µM.
Molecule `CN(C)C(=O)c1cccc(N2CC(Oc3ccc(COc4cccnc4)cc3)C2)c1-n1cccc1` [Example 1e, N,N-dimethyl-3-(3-(4-((pyridin-3-yloxy)methyl)phenoxy)azetidin-1-yl)-2-(1H-pyrrol-1-yl) benzamide] has an EC50 of 1 to 10 µM.
Molecule `Cc1cncc(OCc2ccc(OC3CN(c4cccc(C(=O)O)c4-n4cccc4)C3)cc2)c1` [Example 3a, 3-(3-(4-((5-methylpyridin-3-yloxy)methyl)phenoxy)azetidin-1-yl)-2-(1H-pyrrol-1-yl) benzoic acid] has an EC50 greater than 50 µM.
